The values below come from ChEMBL document CHEMBL1123303, “Synthesis of 2-(4-substituted-1-piperazinyl)benzimidazoles as H1-antihistaminic agents” (J Med Chem, 1986).

Usually IC50 stands for the concentration that gives 50% inhibition. What is called ED50 is the dose at which the effect has come halfway, by size or by number of responders. Lower therefore signals an effect at a small dose.

One test deals with Histamine H1 receptor (Cavia porcellus, UniProt P31389). Description: In vitro inhibition of histamine-induced contractions in guinea pig ileum. Format: functional, tissue-based.
Chain of Histamine H1 receptor (P31389 whole entry): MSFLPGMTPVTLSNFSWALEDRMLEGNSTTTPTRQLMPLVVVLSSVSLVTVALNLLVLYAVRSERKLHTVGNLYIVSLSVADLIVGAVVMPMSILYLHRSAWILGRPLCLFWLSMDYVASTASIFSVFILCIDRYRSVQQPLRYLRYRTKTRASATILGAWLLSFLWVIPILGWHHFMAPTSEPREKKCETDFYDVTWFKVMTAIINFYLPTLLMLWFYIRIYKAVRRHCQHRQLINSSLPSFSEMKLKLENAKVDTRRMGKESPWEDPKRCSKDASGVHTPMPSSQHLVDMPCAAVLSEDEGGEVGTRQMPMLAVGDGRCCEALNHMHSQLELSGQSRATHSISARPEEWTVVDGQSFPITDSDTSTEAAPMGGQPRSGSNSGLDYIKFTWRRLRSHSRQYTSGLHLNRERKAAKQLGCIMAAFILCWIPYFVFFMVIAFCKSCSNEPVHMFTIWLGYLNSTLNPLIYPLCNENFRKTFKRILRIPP
A short description of test [1]: In vivo for the inhibition of histamine-induced mortality in guinea pig. Format: functional. The following applies: Cavia porcellus.

Some results are limits rather than exact numbers.

`CN1CCN(c2nc3ccccc3n2C)CC1` registered an IC50 on Histamine H1 receptor of 320 nM.
Same read-out and setting: the result for `CN1CCN(c2nc3ccccc3n2CCO)CC1` reads 410 nM; that for `CCOCCn1c(N2CCN(CC)CC2)nc2ccccc21`, 18 nM.
Turning to `CCCCCCN1CCN(c2nc3ccccc3n2CCOCC)CC1`, in test [1], the 50% effective dose (ED50) is greater than 0.1 mg/kg. For the same molecule, on Histamine H1 receptor, the midpoint of inhibition, the IC50, lay at 8.6 nM.
`CCCCCCCCCCn1c(N2CCN(C)CC2)nc2ccccc21`: half-maximal inhibition on Histamine H1 receptor (IC50) was put at 4200 nM.
As for `CCCC(C)Cn1c(N2CCN(C)CC2)nc2ccccc21` (configuration not stated), 1500 nM corresponded to half-maximal inhibition against Histamine H1 receptor (IC50).
In turn, `CCCOCn1c(N2CCN(C)CC2)nc2ccccc21` displayed an ED50 in test [1] greater than 0.1 mg/kg. The IC50 against Histamine H1 receptor was 18 nM.
Take `CN1CCN(c2nc3ccccc3n2CCOCc2ccccc2)CC1`: the ED50 in test [1] is greater than 0.1 mg/kg. For the same molecule, the IC50 at Histamine H1 receptor came to 430 nM.
In test [1], `CCCCOCCn1c(N2CCCN(C)CC2)nc2ccccc21` returned an ED50 greater than 0.1 mg/kg. The midpoint of inhibition against Histamine H1 receptor, the IC50, lay at 10 nM.
The molecule `CCSCCCn1c(N2CCN(C)CC2)nc2ccccc21` gave an IC50 at Histamine H1 receptor of 530 nM.
Take `C=CCOCCn1c(N2CCCN(C)CC2)nc2ccccc21`: at Histamine H1 receptor, half-maximal inhibition (IC50) was put at 10 nM.
The molecule `C#CCOCCn1c(N2CCCN(C)CC2)nc2ccccc21` yielded an IC50 on Histamine H1 receptor of 9.9 nM.
`CN1CCN(c2nc3ccccc3n2-c2ccccc2)CC1`: at Histamine H1 receptor, the half-inhibitory concentration (IC50) is 760 nM.
Molecule `CCCCCN1CCN(c2nc3ccccc3n2CCOCC)CC1` returned an ED50 in test [1] greater than 0.1 mg/kg. Further, the 50% inhibitory concentration (IC50) on Histamine H1 receptor was 30 nM.
The like results for `CCOCCn1c(N2CCCN(CC)CC2)nc2ccccc21` were, in that order, 0.032 mg/kg and 16 nM.
`CCCCn1c(N2CCN(C)CC2)nc2ccccc21`: on Histamine H1 receptor, the IC50 turned out to be 50 nM.
Turning to `CCOCCn1c(N2CCN(c3ccccc3)CC2)nc2ccccc21`, at Histamine H1 receptor, the IC50 was greater than 10000 nM.
On the same count and under the same terms, the result for `CCCOCCn1c(N2CCCN(C)CC2)nc2ccccc21` reads 16 nM.
Consider `CN1CCN(c2nc3ccccc3n2CCOCCO)CC1`, for which the ED50 in test [1] was 0.051 mg/kg. In addition, the IC50 against Histamine H1 receptor was 42 nM.
In the case of `CCOCCn1c(N2CCN(C=O)CC2)nc2ccccc21`, the IC50 against Histamine H1 receptor is greater than 3000 nM.
Take `CCOCCn1c(N2CCNCC2)nc2ccccc21`: the IC50 on Histamine H1 receptor stood at 11 nM.
For `C=CCOCCn1c(N2CCN(C)CC2)nc2ccccc21`, the IC50 against Histamine H1 receptor is 17 nM.
On Histamine H1 receptor, `CN1CCN(c2nc3ccccc3[nH]2)CC1` had an IC50 greater than 3000 nM.
Molecule `CCOCCn1c(N2CCN(Cc3ccccc3)CC2)nc2ccccc21` came in with an ED50 in test [1] of 0.039 mg/kg. This molecule came in with a half-maximal inhibitory concentration (IC50) on Histamine H1 receptor of 27 nM.
The like results for `C=COCCn1c(N2CCN(C)CC2)nc2ccccc21` were, in that order, 0.023 mg/kg and 10 nM.
In test [1], `COCCn1c(N2CCN(C)CC2)nc2ccccc21` displayed an ED50 greater than 0.05 mg/kg. For the same molecule, the IC50 against Histamine H1 receptor is 13 nM.
The molecule `CCCCN1CCN(c2nc3ccccc3n2CCOCC)CC1` had an ED50 in test [1] greater than 0.1 mg/kg. The molecule further registered a 50% inhibitory concentration (IC50) on Histamine H1 receptor of 15 nM.
The like results for `CCCCN1CCCN(c2nc3ccccc3n2CCOCC)CC1` were, in that order, 0.12 mg/kg and 8.4 nM.
For the molecule `CCOCCn1c(N2CCN(C)CC2)nc2ccccc21`, the IC50 against Histamine H1 receptor turned out to be 10 nM.
With `COCCCn1c(N2CCN(C)CC2)nc2ccccc21`, the 50% effective dose (ED50) in test [1] is greater than 0.1 mg/kg. Moreover, on Histamine H1 receptor, the midpoint of inhibition, the IC50, lay at 860 nM.
In test [1], `CN1CCN(c2nc3ccccc3n2Cc2ccccc2)CC1` came in with an ED50 greater than 0.05 mg/kg. In addition, the midpoint of inhibition at Histamine H1 receptor, the IC50, lay at 17 nM.
For `CN1CCN(c2nc3ccccc3n2CCc2ccccc2)CC1`, the IC50 at Histamine H1 receptor stood at 240 nM.
Regarding `CCCCCCCn1c(N2CCN(C)CC2)nc2ccccc21`, on Histamine H1 receptor, the IC50 came to 150 nM.
In test [1], `CCOCCn1c(N2CCCN(Cc3ccccc3)CC2)nc2ccccc21` showed an ED50 greater than 0.1 mg/kg. Also, at Histamine H1 receptor, 15 nM corresponded to half-maximal inhibition (IC50).
In the same order, the values of `CCCN1CCCN(c2nc3ccccc3n2CCOCC)CC1` are greater than 0.1 mg/kg and 8.4 nM.
In test [1], `CCCCCn1c(N2CCN(C)CC2)nc2ccccc21` returned an ED50 of 0.19 mg/kg. The IC50 at Histamine H1 receptor was determined as 19 nM.
On to `CCCCCN1CCCN(c2nc3ccccc3n2CCOCC)CC1`, for which the ED50 in test [1] was greater than 0.05 mg/kg. The molecule also came in with an IC50 on Histamine H1 receptor of 7.4 nM.
Turning to `CCCOCCn1c(N2CCN(C)CC2)nc2ccccc21`, the IC50 against Histamine H1 receptor is 20 nM.
Regarding `C#CCOCCn1c(N2CCN(C)CC2)nc2ccccc21`, half-maximal inhibition on Histamine H1 receptor (IC50) was put at 12 nM.
Molecule `CCCSCn1c(N2CCN(C)CC2)nc2ccccc21` had an IC50 on Histamine H1 receptor of 68 nM.
Take `CCOCCn1c(N2CCN(C(c3ccccc3)c3ccccc3)CC2)nc2ccccc21`: the IC50 on Histamine H1 receptor is greater than 3000 nM.
The molecule `CCCN1CCN(c2nc3ccccc3n2CCOCC)CC1` returned an ED50 in test [1] of 0.021 mg/kg. 16 nM corresponded to half-maximal inhibition at Histamine H1 receptor (IC50).
Regarding `CN1CCCN(c2nc3ccccc3n2CCOc2ccccc2)CC1`, the IC50 against Histamine H1 receptor was 9.1 nM.
As to `CCCn1c(N2CCN(C)CC2)nc2ccccc21`, at Histamine H1 receptor, it took 380 nM to reach half-maximal inhibition (IC50).
On to `CCCCCCn1c(N2CCN(C)CC2)nc2ccccc21`, for which, on Histamine H1 receptor, the 50% inhibitory concentration (IC50) came to 26 nM.
As to `CN1CCN(c2nc3ccccc3n2CCOc2ccccc2)CC1`, the IC50 on Histamine H1 receptor turned out to be 6.9 nM.
On Histamine H1 receptor, `CCCC(C)n1c(N2CCN(C)CC2)nc2ccccc21` (configuration not stated) displayed an IC50 of 1400 nM.
The molecule `CC(C)CCn1c(N2CCN(C)CC2)nc2ccccc21` yielded an IC50 against Histamine H1 receptor of 1400 nM.
In test [1], `CCOCCn1c(N2CCCN(C)CC2)nc2ccccc21` [EMEDASTINE] gave an ED50 of 0.0044 mg/kg. This molecule also had an IC50 on Histamine H1 receptor of 6.1 nM.
In the same order, the values of `CCOCCn1c(N2CCCNCC2)nc2ccccc21` are 0.041 mg/kg and 25 nM.
As to `CCSCCn1c(N2CCN(C)CC2)nc2ccccc21`, in test [1], the ED50 is 0.28 mg/kg. This molecule returned an IC50 at Histamine H1 receptor of 19 nM.
The like results for `CCCCOCCn1c(N2CCN(C)CC2)nc2ccccc21` were, in that order, greater than 0.1 mg/kg and 38 nM.
`CCOCCn1c(N2CCN(CCc3ccccc3)CC2)nc2ccccc21` gave an ED50 in test [1] greater than 0.1 mg/kg. In addition, the IC50 on Histamine H1 receptor was found to be 31 nM.
